Experimental data reported in PMC9272924, “Design and synthesis of thiazolidine-2,4-diones hybrids with 1,2-dihydroquinolones and 2-oxindoles as potential VEGFR-2 inhibitors: in-vitro anticancer evaluation and in-silico studies” (Journal of Enzyme Inhibition and Medicinal Chemistry, 2022).
Values joined by “and” are separate entries in the source; they are usually repeats but may differ in a detail not shown here. Equal entries are not always repeated. “Also recorded” adds a separate entry of the source.

What was measured:
[1] = In vitro anti-proliferative activity (MTT assay), Caco-2; assay type: cell-based; details: African green monkey (Vero); human (Caco-2); SI = Cytotoxicity against Vero cells / Cytotoxicity against Caco-2 cell line; read-out: Selectivity index (SI) (Caco-2)
Protocol: (§1) Target quinolines 8a–c, indolines 12a and 12b were assessed for their potential anti-proliferative effects against a panel of three different cancer cell lines; colon (Caco-2), hepatocellular (HepG2), and breast (MDA-MB-231) cancer cell lines using standard MTT assay protocol. The obtained results confirmed the anti-cancer effects of the tested compounds against the three types of cancerous cell lines, expressed as the median growth inhibitory concentration (IC50), and were presented in Table 1.
(§2) Anti-proliferative activities of the experimented compounds were assessed against Caco-2, HepG-2, and MDA-MB-231 cell lines using MTT assay protocol[54]^,[74] as described in Supplementary data. […]
(§3) a- Mammalian cell lines culture
(§4) WISH, CaCo-2, and A549 cell lines were cultured on DMEM media, meanwhile MDA-MB-231 and hepG-2 cell line were cultured on RBMI media. The cultured media were supplemented with 200 mM L-glutamine, 10.0% fetal bovine serum (Lonza), and 1.0% penicillin/streptomycin. Cells were seeded into 25.0 cm tissue culture flasks and incubated at 37◦C in a 5.0% CO2 incubator for 24 h or till confluency.
(§5) The safety profiles of the tested compounds were checked on one non-cancerous cell line (Vero) to […]
(§6) of 100.0 µl of 6×10^4 cell/ml cells was seeded into each well of a 96-well plate and then the plates were incubated at 37 °C in a humidified 5.0% CO2 incubator for 24 h. At the end of incubation period, the exhausted medium was replaced with 100.0 µl of different concentrations of the designated treatment (prepared in RPMI medium starting from 1.0 mM). The inoculated plates were incubated at the same growth conditions for another 24 h. At the end of incubation, cellular viability was assessed using MTS assay kit (Promega) according to the manual instruction. c- In-vitro anticancer activity
(§7) Anticancer activities of the tested compounds against CaCo-2, MDA-MB-231, and hepG-2 cell lines were quantified using MTS assay kit (Promega) as described by the Manufacturer. d- Selectivity index (SI)
(§8) The selectivity index values of the tested compounds on cancer cells were calculated as described by Koch et al., with slight modifications; SI=IC50nc/IC50cc, where IC50nc: the IC 50 value of the tested compound on normal cells and IC 50cc: IC50 of the te sted compound on cancer cell line . […]

[2] = system: Caco-2; test: as above; assay type: cell-based; details: Homo sapiens, Caco-2; MTT assay; mean of three replicates
Protocol: as §1, §2, §3, §4, §5, §6, §7, §8

[3] = system: HepG2; test: In vitro anti-proliferative activity (MTT assay), HepG2; assay type: cell-based; details: for IC50: Homo sapiens, HepG2, MTT assay, mean of three replicates; for Selectivity index (SI) (HepG2): SI = Cytotoxicity against Vero cells / Cytotoxicity against HepG2 cell line
Protocol: as §1, §2, §3, §4, §5, §6, §7, §8

[4] = system: MDA-MB-231; test: In vitro anti-proliferative activity (MTT assay), MDA-MB-231; assay type: cell-based; details: for IC50: Homo sapiens, MDA-MB-231, MTT assay, mean of three replicates; for Selectivity index (SI) (MDA-MB-231): SI = Cytotoxicity against Vero cells / Cytotoxicity against MDA-MB-231 cell line
Protocol: as §1, §2, §3, §4, §5, §6, §7, §8

[5] = biological target: T1, VEGFR-2 (Homo sapiens, UniProt P35968); test: In vitro VEGFR-2 kinase assay (VEGFR-2 ELISA kit); assay type: biochemical; details: for HillSlope, best-fit value, VEGFR-2 inhibition / LogIC50, best-fit value, VEGFR-2 inhibition: raw data curve fit, % remaining activity
T1 construct: purchased
From the text: To explore the molecular mechanism of the tested compounds as anticancer agents, the compounds were further evaluated to assess their enzymatic inhibitory potential against VEGFR-2.
VEGFR-2 inhibitory activity of the experimented compounds was preceded using a VEGFR-2 ELISA kit as reported and described in Supplementary data.

[6] = Safety assay: in-vitro viability on non-cancerous Vero cell line; assay type: cell-based; details: African green monkey, Vero cells (non-cancerous cell line), MTT assay, read-out: Cytotoxicity against Vero (IC50 µM)
Protocol: An in-vitro viability test was used to investigate the safety patterns of the tested compounds at different concentrations (1.0 mM/mL to 50 µM/mL). The Vero cell line was used as a non-cancerous cell line model to investigate the safety of the synthesised compounds. […] Such values were very high in comparison to the corresponding values on cancer cell lines, which reflect the high in vitro safety profile of the tested members towards non-cancerous cell lines (Table 2). […]
as §3, §4, §5
of 100.0 µl of 6×10^4 cell/ml cells was seeded into each well of a 96-well plate and then the plates were incubated at 37 °C in a humidified 5.0% CO2 incubator for 24 h. At the end of incubation period, the exhausted medium was replaced with 100.0 µl of different concentrations of the designated treatment (prepared in RPMI medium starting from 1.0 mM). The inoculated plates were incubated at the same growth conditions for another 24 h. At the end of incubation, cellular viability was assessed using MTS assay kit (Promega) according to the manual instruction. […]
d- Selectivity index (SI)
as §8

[7] = system: Caco-2 cells; test: Cell migration (in-vitro scratch / wound healing) assay; assay type: cell-based
From the text: The potential of compound 12a to inhibit the ability of Caco-2 cells to migrate and heal was investigated through the in-vitro scratch assay which is a low-cost easy and well-developed method. The basic concept of this method involves the generation of a scratch in a cancer cell line monolayer, recording the diameter at the beginning, and at regular intervals during cell migration to close that scratch. The obtained results of the treated cell line are then compared to the untreated cell line. Images of scratched areas from the time points; 0, 24 are illustrated in Figure 3.
Regarding the representative control, the scratch was completely closed within 24 h (Figure 3(C)). […] This significant morphological change could be linked to the incidence of apoptosis in the treated cancer cells.
Cell migration assay was fulfilled according to the reported protocol as described[78] in Supplementary data. […]
as §3
WISH, CaCo-2, and A549 cell lines were cultured on DMEM media, meanwhile MDA-MB-231 and hepG-2 cell line were cultured on RBMI media. The cultured media were supplemented with 200 mM L-glutamine, 10.0% fetal bovine serum (Lonza), and 1.0% penicillin/streptomycin. Cells were seeded into 25.0 cm tissue culture flasks and incubated at 37◦C in a 5.0% CO2 incubator for 24 h or till confluency. […]
e- Wound healing assay (Migration assay)
CaCo-2 cells were grown to 95.0% confluency in a complete DMEM medium and then the wounds were formed using a plastic tip. After washing with pre -warmed PBS, the cells were incubated in the specific medium or the 12a treatment. After incubation at 37°C and 5.0% CO 2 for 24h, the cells were washed with PBS and the wounds distance was determined as the scratch width of the treated and untreated groups using […]

[8] = system: Bcl2; test: Gene expression by RT-qPCR in Caco-2 cells, Bcl2; assay type: cell-based; details: Caco-2 treated with 2 µM (IC50 value) of 12a, compared to control cells
From the text: (§9) These findings indicate the efficiency of compound 12a in the induction of apoptosis (Figure 4).
(§10) The molecular anticancer mode of action of 12a was investigated by screening their ability to control the gene expression levels of Bcl2, Bcl-xl, TGF and Survivin genes as reported[79] in Supplementary data. […]
(§11) f- Gene expression pattern alternation of cancer cell after 12a treatment The molecular anticancer mode of action of 12a was investigated by screening their ability to affect the gene expression levels of Bcl2, Bcl-xl, TGF and Survivin genes using specific forward and reverse primers and RTq-PCR technique (Table 1) in CaCo-2 cells (chosen as the most sensitive cancer cell line). After cellular treatment, CaCo-2 cell line was cultured into 12 well plates (6×10^3 cell/ml) for 24 h. with the sub- […]
(§12) After treatment, total RNA extraction was performed using RNA extraction kit (Qiagen, Germany). Then, 1 ug of the obtained RNA was used to synthesiz cDNA using cDNA synthesis kit (Promega Corp., Madison, WI) as recommended by the manufacturer. Simultaneously, GAPDH forward and reverse primers (Table 1) were used to amplify the house keeping gene as internal control for standardization of PCR products. The RTq-PCR was done using SYBR Green dye (QuantiTect SYBR Green PCR Kits) and Light Cycler fluorimeter (Bio-RAD S1000 Tm thermal cycler). […]

[9] = system: Bcl-xl; test: Gene expression by RT-qPCR in Caco-2 cells, Bcl-xl; assay type: cell-based; details: Caco-2 treated with 2 µM (IC50 value) of 12a, compared to control cells
From the text: as §9, §10, §11, §12

[10] = system: Survivin; test: Gene expression by RT-qPCR in Caco-2 cells, Survivin; assay type: cell-based; details: Caco-2 treated with 2 µM (IC50 value) of 12a, compared to control cells
From the text: as §9, §10, §11, §12

[11] = system: TGF; test: Gene expression by RT-qPCR in Caco-2 cells, TGF; assay type: cell-based; details: Caco-2 treated with 2 µM (IC50 value) of 12a, compared to control cells
From the text: as §9, §10, §11, §12

T1 sequence (P35968 20-1356): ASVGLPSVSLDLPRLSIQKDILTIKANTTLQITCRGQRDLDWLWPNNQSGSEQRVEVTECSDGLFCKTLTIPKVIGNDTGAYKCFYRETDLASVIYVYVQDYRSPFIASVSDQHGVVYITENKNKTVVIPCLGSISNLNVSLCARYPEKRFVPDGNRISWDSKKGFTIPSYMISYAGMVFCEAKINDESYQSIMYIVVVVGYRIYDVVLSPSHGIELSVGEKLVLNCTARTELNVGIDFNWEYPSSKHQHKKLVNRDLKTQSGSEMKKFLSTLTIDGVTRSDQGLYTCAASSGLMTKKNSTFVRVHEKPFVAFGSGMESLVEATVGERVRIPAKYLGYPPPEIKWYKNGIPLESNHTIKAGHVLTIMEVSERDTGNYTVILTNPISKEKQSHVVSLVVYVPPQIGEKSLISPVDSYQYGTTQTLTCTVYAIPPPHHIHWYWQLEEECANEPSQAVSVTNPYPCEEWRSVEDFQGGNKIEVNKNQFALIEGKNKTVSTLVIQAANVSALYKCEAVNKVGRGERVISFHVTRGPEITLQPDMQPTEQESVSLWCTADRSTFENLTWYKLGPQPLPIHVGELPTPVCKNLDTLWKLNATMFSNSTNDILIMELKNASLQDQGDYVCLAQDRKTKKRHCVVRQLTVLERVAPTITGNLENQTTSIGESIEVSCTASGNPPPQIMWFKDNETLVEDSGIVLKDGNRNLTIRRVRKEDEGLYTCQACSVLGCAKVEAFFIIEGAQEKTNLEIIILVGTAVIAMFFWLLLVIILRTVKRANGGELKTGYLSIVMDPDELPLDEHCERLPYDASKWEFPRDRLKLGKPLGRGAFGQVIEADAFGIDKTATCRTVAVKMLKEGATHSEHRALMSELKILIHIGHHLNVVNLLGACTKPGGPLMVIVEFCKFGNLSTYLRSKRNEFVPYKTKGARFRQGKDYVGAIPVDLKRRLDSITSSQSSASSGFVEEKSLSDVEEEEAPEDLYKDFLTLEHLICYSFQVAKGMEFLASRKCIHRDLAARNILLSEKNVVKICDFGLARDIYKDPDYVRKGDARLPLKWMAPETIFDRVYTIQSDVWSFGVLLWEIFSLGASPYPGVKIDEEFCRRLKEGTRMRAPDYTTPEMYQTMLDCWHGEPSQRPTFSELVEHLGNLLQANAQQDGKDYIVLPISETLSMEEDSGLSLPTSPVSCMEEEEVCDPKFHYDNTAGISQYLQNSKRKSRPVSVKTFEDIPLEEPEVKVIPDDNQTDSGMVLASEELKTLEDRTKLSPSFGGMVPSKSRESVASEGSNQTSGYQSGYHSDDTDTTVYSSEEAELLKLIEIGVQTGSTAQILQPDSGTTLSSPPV

Structure (SMILES) | selectivity ratio [1] | IC50 [2] [µM] | IC50 [3] [µM] | Selectivity index (SI) (HepG2) [3] | IC50 [4] [µM] | Selectivity index (SI) (MDA-MB-231) [4] | IC50 [5] [µM] | HillSlope, best-fit value, VEGFR-2 inhibition [5] | LogIC50, best-fit value, VEGFR-2 inhibition [5] | IC50 at 24 h [6] [µM] | wound diameter of treated Caco-2 cells ([7]; 12a at sub IC50 value (1 µM), 24 h, 0.348 mm at 0 h, control scratch completely closed within 24 h) [mm] | scratch closure and cancer cell migration ([7]; Caco-2, 1 µM, 24 h) | Caco-2 cell shape ([7]; within 24 h) | Bcl2 gene expression [8] | Bcl-xl gene expression [9] | Survivin gene expression [10] | TGF gene expression [11]
Cc1ccc(NC(=O)CN2C(=O)SC(=Cc3cc4ccccc4[nH]c3=O)C2=O)cc1 [Compound 8a, 2–(2,4-Dioxo-5-((2-oxo-1,2-dihydroquinolin-3-yl)methylene)thiazolidin-3-yl)-N-(p-tolyl)acetamide] | 177 | 9 ± 0.001 | 86 ± 0.001 | 18.49 | 150 ± 0.01 | 10.60 | 0.0966 | -0.4030 | 1.985 Log (nM) | 1590 ± 0.068 |  |  |  |  |  |  | 
O=C(CN1C(=O)SC(=Cc2cc3ccccc3[nH]c2=O)C1=O)NCCc1ccccc1 [Compound 8b, 2–(2,4-Dioxo-5-((2-oxo-1,2-dihydroquinolin-3-yl)methylene)thiazolidin-3-yl)-N-phenethylacetamide] | 5.93 | 150 ± 0.013 | 60 ± 0.008 | 14.83 | 60 ± 0.003 | 14.83 | 0.0874 | -0.3502 | 1.941 Log (nM) | 890 ± 0.015 |  |  |  |  |  |  | 
O=C(CN1C(=O)SC(=Cc2cc3ccccc3[nH]c2=O)C1=O)Nc1ccccc1[N+](=O)[O-] [Compound 8c, 2–(2,4-Dioxo-5-((2-oxo-1,2-dihydroquinolin-3-yl)methylene)thiazolidin-3-yl)-N-(2-nitrophenyl)acetamide] | 4.33 | 90 ± 0.004 | 156 ± 0.004 | 2.50 | 70 ± 0.009 | 5.57 | 0.318 | -0.3460 | 2.502 Log (nM) | 390 ± 0.02 |  |  |  |  |  |  | 
Cc1ccc(NC(=O)CN2C(=O)S/C(=C3\C(=O)Nc4ccccc43)C2=O)cc1 [Compound 12a, (Z)-2–(2,4-dioxo-5–(2-oxoindolin-3-ylidene)thiazolidin-3-yl)-N-(p-tolyl)acetamide] | 365 | 2 ± 0.005 | 10 ± 0.001 | 73.00 | 40 ± 0.002 | 18 and 18.25 |  | -0.4584 | 2.066 Log (nM) | 730 ± 0.015 | 0.335 | significantly inhibited the scratch closure and cancer cell migration; also recorded: significantly inhibited the ability of cancer cells to migrate and heal | changed the Caco-2 cell shape from an irregular into the normalised round form; also recorded: changed the cancer cell shape from irregular to a normalised round form | significant down-regulation; also recorded: downregulate | significant down-regulation; also recorded: downregulate | significant down-regulation; also recorded: downregulate | upregulation; also recorded: upregulate
O=C(CN1C(=O)S/C(=C2\C(=O)Nc3ccccc32)C1=O)Nc1ccccc1[N+](=O)[O-] [Compound 12b, (Z)-2–(2,4-dioxo-5–(2-oxoindolin-3-ylidene)thiazolidin-3-yl)-N-(2-nitrophenyl) acetamide] | 4 | 120 ± 0.001 | 49 ± 0.008 | 9.80 | 37 ± 0.002 | 12.97 | 0.0841 | -0.2985 | 1.925 Log (nM) | 480 ± 40 |  |  |  |  |  |  | 
COc1cccc2c1C(=O)c1c(O)c3c(c(O)c1C2=O)C[C@@](O)(C(=O)CO)C[C@@H]3O[C@H]1C[C@H](N)[C@H](O)[C@H](C)O1 [Doxorubicin, reference compound] |  | 3.46 ± 0.003 | 1.15 ± 0.02 |  | 0.98 ± 0.01 |  |  |  |  |  |  |  |  |  |  |  | 
